Assay results: patent US11980616B2, “Treating liver disease by selectively eliminating senescent cells” (Buck Institute for Research on Aging, priority 2014, dated 2024)

What was measured:
[1] = test system: osteoarthritic joint of mice after ACL surgery; test: Osteoarthritis mouse model (ACL surgery); assay type: in vivo
Procedure: A table and schematic of two osteoarthritis mouse model study designs are presented in FIGS. 35 and 36, respectively. The two treatment studies were designed to determine the effect of removing senescent cells in an animal model of osteoarthritis.
Parallel studies were performed. One study investigated the effect of eliminating senescent cells with ganciclovir (GCV) in 3MR mice. Mice underwent surgery to cut the anterior cruciate ligament of one rear limb to induce osteoarthritis in the joint of that limb. During week 2 post-surgery, 3MR mice received 2.5 μg GCV to the operated knee by intra-articular injection, qd for 5 days, with a 2nd treatment (2.5 μg GCV qd for 5 days) during week 4 post-surgery. At the end of 4 weeks post-surgery, operated joints of the mice were monitored for presence of senescent cells, assessed for function, monitored for markers of inflammation, and underwent histological assessment.
In a parallel study, C57BL/6J mice underwent surgery to cut the anterior cruciate ligament of one rear limb to induce osteoarthritis in the joint of that limb. During week 3 and week 4 post-surgery, the mice were treated with 5.8 μg of Nutlin-3A (n=7) per operated knee by intra-articular injection, qod for 2 weeks. At the end of 4 weeks post-surgery, joints of the mice were monitored for presence of senescent cells, assessed for function, monitored for markers of inflammation, and underwent histological assessment.
Two control groups of mice were included in the studies performed: one group comprising C57BL/6J or 3MR mice that had undergone a sham surgery (n=3) (i.e., surgical procedures followed except for cutting the ACL) and intra-articular injections of vehicle parallel to the GCV-treated group; and one group comprising C57BL/6J or 3MR mice that had undergone an ACL surgery and received intra-articular injections of vehicle (n=5) parallel to the GCV-treated group.
RNA from the operated joints of mice from the Nutlin-3A treated mice was analyzed for expression of SASP factors (mmp3, IL-6) and senescence markers (p16). qRT-PCR was performed to detect mRNA levels. […] RNA from the operated joints of mice was also analyzed for expression of type 2 collagen and compared with expression of actin as a control.
Function of the limbs was assessed 4 weeks post-surgery by a weight bearing test to determine which leg the mice favored (FIG. 39). The mice were allowed to acclimate to the chamber on at least 3 occasions prior to taking measurements. Mice were maneuvered inside the chamber to stand with 1 hind paw on each scale. The weight that was placed on each hind limb was measured over a 3-second period. At least 3 separate measurements were made for each animal at each time point. The results were expressed as the percentage of the weight placed on the operated limb versus the contralateral unoperated limb.
The function of the limbs was also assessed at 4 weeks post-surgery by hotplate analysis to show sensitivity and reaction to pain stimulus. In brief, a mouse was placed on a hotplate at 55° C. When placed on the hot surface of the plate, mice will lift their paws and lick them (paw-lick response) due to attainment of pain threshold. The latency period for the hind limb response (paw-lick response) is recorded as response time.
Histopathology of osteoarthritis induced by ACL surgery illustrated that the proteoglycan layer was destroyed. […] Clearing of senescent cells from the 3MR mice treated with GCV, which kills senescent cells, had the same impact on pathophysiology of osteoarthritis as Nutlin-3A.

[2] = test system: 3MR or INK-ATTAC mice exposed to cigarette smoke; test: Chronic cigarette smoke exposure model (COPD); assay type: in vivo, mouse; details: after 2 months of cigarette smoke exposure; vs untreated controls
Procedure: In a second animal model for pulmonary diseases (e.g., COPD), mice were exposed to cigarette smoke. The effect of a senolytic agent on the mice exposed to smoke is assessed by senescent cell clearance, lung function, and histopathology.
Six week-old 3MR (n=35) or INK-ATTAC (n=35) mice were chronically exposed to cigarette smoke generated from a Teague TE-10 system, an automatically-controlled cigarette smoking machine that produces a combination of side-stream and mainstream cigarette smoke in a chamber, which is transported to a collecting and mixing chamber where varying amounts of air is mixed with the smoke mixture. The COPD protocol was adapted from the COPD core facility at Johns Hopkins University (at Internet site web.jhu.edu/Biswal/exposure_core/copd.html#Cigarette_Smoke) (Rangasamy et al., 2004, J. Clin. Invest. 114:1248-1259; Yao et al., 2012, J. Clin. Invest. 122:2032-2045). Mice received a total of 6 hours of cigarette smoke exposure per day, 5 days a week for 6 months. Each lighted cigarette (3R4F research cigarettes containing 10.9 mg of total particulate matter (TPM), 9.4 mg of tar, and 0.726 mg of nicotine, and 11.9 mg carbon monoxide per cigarette [University of Kentucky, Lexington, KY]) was puffed for 2 seconds and once every minute for a total of 8 puffs, with the flow rate of 1.05 L/min, to provide a standard puff of 35 cm^3. The smoke machine was adjusted to produce a mixture of side stream smoke (89%) and mainstream smoke (11%) by smoldering 2 cigarettes at one time. The smoke chamber atmosphere was monitored for total suspended particulates (80-120 mg/m^3) and carbon monoxide (350 ppm). Beginning at day 7, (10) INK-ATTAC and (10) 3MR mice were treated with AP20187 (3× per week) or gancyclovir (5 consecutive days of treatment followed by 16 days off drug, repeated until the end of the experiment), respectively. An equal number of mice received the corresponding vehicle. The remaining […] (15 INK-ATTAC and 15 3MR) were evenly split with 5 of each genetically modified strain placed into three different treatment groups. One group (n=10) received Nutlin-3A (25 mg/kg dissolved in 10% DMSO/3% Tween-20 in PBS, treated 14 days consecutively followed by 14 days off drug, repeated until the end of the experiment). […]
After two months of cigarette smoke exposure, lung function was assessed by monitoring oxygen saturation using the MouseSTAT PhysioSuite pulse oximeter (Kent Scientific). […] Mice were monitored for 30 seconds and the average peripheral capillary oxygen saturation (SpO2) measurement over this duration was calculated.

| SMILES | Type 2 collagen expression in operated joints ([1]; 5.8 μg per knee intra-articular, vs untreated mice) | Weight bearing test (weight on operated vs unoperated limb) ([1]; 4 weeks post-surgery) | Hotplate paw-lick response time ([1]; 55° C., 4 weeks post-surgery) | Histopathology: destruction of the proteoglycan layer ([1]; C57BL/6J, 5.8 μg per knee intra-articular) | Senescent cells in the joint (p16 and SASP factor mRNA, qRT-PCR) ([1]; C57BL/6J, 5.8 μg per knee intra-articular qod 2 weeks, 4 weeks post-surgery) | SpO2 levels [2] | Histopathology: impact on pathophysiology of osteoarthritis ([1]; 3MR mice, 2.5 μg intra-articular qd 5 days, weeks 2 and 4) |
| --- | --- | --- | --- | --- | --- | --- | --- |
| COc1ccc(C2=N[C@@H](c3ccc(Cl)cc3)[C@@H](c3ccc(Cl)cc3)N2C(=O)N2CCNC(=O)C2)c(OC(C)C)c1 [Nutlin-3a] | drives collagen production | abrogates this effect | decreases the response time in a significant manner | completely abrogated this effect | clears senescent cells from the joint | statistically significant increases |  |
| Nc1nc(O)c2ncn(COC(CO)CO)c2n1 [ganciclovir] |  |  |  |  |  | statistically significant increases | same impact |
